According to US6713628B2, “Process for preparing pharmacologically acceptable salt of N-(1(S)-ethoxycarbonyl-3-phenylpropyl)-L-alanyl-amino acid” (Kaneka Corporation, priority 1997, dated 2004):

Key:
Format in all cases: physicochemical
[1] = Formation of diketopiperazine derivative (3) from the Example 10 oil in ethyl acetate of given water content, 10° C., 6 hours, HPLC (Example 10); conditions: about 12% by weight solution
Description: (§1) The HPLC analysis was carried out under the following conditions:
To 5.00 g (28.2 mmol) of 1,2,3,4-tetrahydroisoquinoline-3-carboxylic acid were added 20 ml of ethyl acetate and 10 ml of H2O and, then, the pH was adjusted to 10.5 with 30% by weight NaOH aqueous solution. The inner temperature was regulated to 20° C. and, then, 4.31 g (14.1 mmol) of a crystal of N-(1(S)-ethoxycarbonyl-3-phenylpropyl)-L-alanine.N-carboxyanhydride was slowly added over 5 hours with stirring. During the addition, the reaction mixture was maintained at a pH of 10.5±1.0 with adding dropwise 30% by weight NaOH aqueous solution, and simultaneously, the inner temperature was maintained at 20° C. and the agitating power was maintained at 1.3 kW/m^3. After completion of the addition, the stirring was continued for 2 hour under the same conditions. The mixture was cooled to 5° C., and the pH thereof was adjusted to 4.5±0.2 with 35% by weight HCl. Then, under the same conditions, the stirring was continued for 10 minutes to complete the decarboxylation. The deposited material was removed by filtration under reduced pressure, and the organic phase was separated at 5° C. and the water phase was further extracted once with 20 ml of ethyl acetate at 10° C. The resulting organic phases were mixed and then washed three times with H2O in an amount of 5% by volume of the organic phase at 5° C. The organic phase was concentrated under reduced pressure to obtain 6.43 g of an oil. The oil was dissolved in ethyl acetate having a water content shown in Table 5 to prepare a solution having a concentration of about 12% by weight, and the resulting solution was stirred for 6 hours at 10° C. The amount produced of the diketopiperazine derivative (3) was analyzed with HPLC, and the relation between water content and the average increase in the diketopiperazine derivative (3) per hour was investigated.

[2] = Formation of diketopiperazine derivative (3) from enalapril maleate in ethyl acetate containing 0.1% water or in H2O, 60° C., 6 hours, HPLC (Example 9); conditions: 16% by weight
Description: as §1
According to Example 1, N-(1(S)-ethoxycarbonyl-3-phenylpropyl)-L-alanyl-L-proline maleate was prepared. Thereto was added ethyl acetate containing 0.1% water or H2O to prepare a solution having a concentration of 16% by weight, and the solution was warmed to 60° C. and stirred for 6 hours. The amount produced of the diketopiperazine derivative (3) was analyzed with HPLC, and the relation between water content and the average increase in the diketopiperazine derivative (3) per hour was investigated.

[3] = Formation of diketopiperazine derivative (3) from enalapril in ethyl acetate of given water content or in water, 30° C., 6 hours, HPLC (Example 8); conditions: about 13% by weight solution
Description: as §1
According to Example 1, an ethyl acetate solution of N-(1(S)-ethoxycarbonyl-3-phenylpropyl)-L-alanyl-L-proline was prepared. 129.40 Grams of this organic phase was washed twice with 30 ml of saturated brine, and dehydrated with magnesium sulfate. The solvent was concentrated and, then, the concentrated liquid was dried under reduced pressure to obtain an oily reaction product. This product was dissolved in ethyl acetate having a water content shown in Table 3 or water to prepare a solution having a concentration of about 13% by weight, and the solution was warmed to 30° C. and stirred for 6 hours. The amount produced of the diketopiperazine derivative (3) was analyzed with HPLC, and the relation between water content and the average increase in the diketopiperazine derivative (3) per hour was investigated. The molar ratio in Table 3 means mol number of water per 1 mol of N-(1(S)-ethoxycarbonyl-3-phenylpropyl)-L-alanyl-L-proline.

[4] = Partition of enalapril between ethyl acetate and water against temperature, HPLC (Example 11); conditions: ethyl acetate solution + H2O 10% by volume
Description: as §1
According to Example 1, an ethyl acetate solution of N-(1(S)-ethoxycarbonyl-3-phenylpropyl)-L-alanyl-L-proline was prepared. To 50 ml of the ethyl acetate solution was added H2O in an amount of 10% by volume (based on ethyl acetate). The mixture was stirred for 10 minutes at each temperature shown in Table 6, and allowed to stand still for 10 minutes and, then, separated. The amount of N-(1(S)-ethoxycarbonyl-3-phenylpropyl)-L-alanyl-L-proline in the water-saturated organic phase was analyzed with HPLC, and the relation between the temperature and the partition ratio to the organic phase was investigated.

CCOC(=O)[C@H](CCc1ccccc1)N[C@@H](C)C(=O)N1Cc2ccccc2C[C@H]1C(=O)O [Example 10]
Average increase per hour of diketopiperazine derivative (3) ([1]; water content 0.1% by weight): 5.3 % by weight/hr | Average increase per hour of diketopiperazine derivative (3) ([1]; water content 1.0% by weight): 2.2 % by weight/hr | Average increase per hour of diketopiperazine derivative (3) ([1]; water content 2.1% by weight): 1.7 % by weight/hr | Average increase per hour of diketopiperazine derivative (3) ([1]; water content 3.8% by weight): 1.3 % by weight/hr

CCOC(=O)[C@H](CCc1ccccc1)N[C@@H](C)C(=O)N1CCC[C@H]1C(=O)O.O=C(O)/C=C\C(=O)O [N-(1(S)-ethoxycarbonyl-3-phenylpropyl)-L-alanyl-L-proline maleate]
Average increase per hour of diketopiperazine derivative (3) ([2]; H2O): 0.06 % by weight/hr | Average increase per hour of diketopiperazine derivative (3) ([2]; ethyl acetate containing 0.1% water): 0.55 % by weight/hr

CCOC(=O)[C@H](CCc1ccccc1)N[C@@H](C)C(=O)N1CCC[C@H]1C(=O)O [N-(1(S)-ethoxycarbonyl-3-phenylpropyl)-L-alanyl-L-proline]
Average increase per hour of diketopiperazine derivative (3) ([3]; ethyl acetate, water content 0.1% by weight (molar ratio 0.1)): 2.85 % by weight/hr | Average increase per hour of diketopiperazine derivative (3) ([3]; ethyl acetate, water content 0.4% by weight (molar ratio 0.6)): 2.06 % by weight/hr | Average increase per hour of diketopiperazine derivative (3) ([3]; ethyl acetate, water content 1.1% by weight (molar ratio 1.6)): 1.32 % by weight/hr | Average increase per hour of diketopiperazine derivative (3) ([3]; ethyl acetate, water content 2.1% by weight (molar ratio 3.1)): 0.99 % by weight/hr | Average increase per hour of diketopiperazine derivative (3) ([3]; ethyl acetate, water content 3.8% by weight (molar ratio 6.1)): 0.48 % by weight/hr | Average increase per hour of diketopiperazine derivative (3) ([3]; ethyl acetate, water content 5.1% by weight (molar ratio 8.2)): 0.39 % by weight/hr | Average increase per hour of diketopiperazine derivative (3) ([3]; water, water content 100% by weight (molar ratio 160)): 0.02 % by weight/hr | Partition ratio to organic phase ([4]; 5° C.): 26% | Partition ratio to organic phase ([4]; 10° C.): 35% | Partition ratio to organic phase ([4]; 20° C.): 57% | Partition ratio to organic phase ([4]; 25° C.): 72% | Partition ratio to organic phase ([4]; 30° C.): 88% | Partition ratio to organic phase ([4]; 40° C.): 94%
